One compound from US11466286B2, “Methods and compositions for conferring and/or enhancing herbicide tolerance using protoporphyrinogen oxidase or variant thereof” (FarmHannong Co., Ltd., priority 2016, dated 2022) can be followed below.

Assay [1] concerns PPO-deficient BT3 E. coli (ΔPPO) with A. thaliana PPO1 mutant AtPPO1 SLYM (Y426M, S305L, SEQ ID NO: 7). As to the kind of experiment: Growth of transformed BT3 (ΔPPO) on tiafenacil media. The assay is classed as cell-based. The procedure:
(§1) After transforming PPO-deficient BT3 E. coli (ΔPPO) with CyPPO10 or CyPPO13, the transformed BT3 (ΔPPO) was cultured on LB agar plates containing PPO-inhibiting herbicide to examine the growth level of the transformed BT3 (ΔPPO). BT3 (ΔPPO) strain was obtained from Hokkaido University (Japan). The BT3 (ΔPPO) strain is deficient in hemG-type PPO and has kanamycin tolerance (refer to “Watanabe et al., Dual targeting of spinach protoporphyrinogen oxidase II to mitochondria and chloroplasts by alternative use of two in-frame […], JBC 2001 276(23):20474-20481; Che et al., Molecular Characterization and Subcellular Localization of Protoporphyrinogen Oxidase in Spinach Chloroplasts, Plant Physiol. 2000 September; 124(1):59-70”).
(§2) For seed culture of E. coli transformed with respective genes, each single colony of E. coli transformant as provided above was cultured in 3 ml of LB broth containing chloramphenicol overnight (220 rpm, 37° C.), and 50 to 100 μl were subcultured in a new 3 ml of LB broth, and they were cultured until absorbance (OD600) became 0.5 to 1, and they were diluted with LB broth to absorbance (OD600) of 0.5. The diluted solution was serially diluted again 5 times by a factor of one tenth with LB broth. […] The LB Agar media were incubated at 37° C., under light condition, and level of inhibiting growth was observed after 16 to 20 hours of incubation.
(§3) Plant physiol. 2003 133:736-747).

For assay [2], the system named is PPO-deficient BT3 E. coli (ΔPPO) with wild type A. thaliana PPO1 (AtPPO1 WT, SEQ ID NO: 5). Described as above. The format is cell-based. Conditions: 100 μM tiafenacil. The method, then:
as §1, §2, §3

In assay [3] the test system is wild type A. thaliana (Col-0 ecotype). Description: Herbicide injury of A. thaliana plants. The format is in vivo, Arabidopsis thaliana. Particulars: 1 μM spray, within 7 days. The method, then:
For comparison, the same test was conducted using the wild type A. thaliana (Col-0 ecotype).

Assay [4] concerns CyPPO13 (Synechococcus sp. JA-3-3Ab PPO, SEQ ID NO: 4) variant F373M, MBP fusion. Description: PPO inhibition assay. The assay is classed as biochemical. Conditions: herbicide 0-5,000 nM, 50 μM substrate.
Assay [5] relates to soybean transformed with CyPPO10 A167L+F360M. As to the kind of experiment: Herbicide tolerance of soybean. The assay is classed as in vivo.
In assay [6] the test system is Kwangan soybean (non-transformed). As to the kind of experiment: Herbicide tolerance of soybean. Conditions: 5 μM painted on leaves, 7 days. The assay is classed as in vivo.
Assay [7] has as its system A. thaliana T3 lines with CyPPO10 wild type or mutants (F360M, F360I, F360L, F360C, A167C), CyPPO13 wild type or mutants (F373M, F373C, F373I, A177C …). Description: Seed germination of A. thaliana transformants on herbicide media. The format is in vivo, Arabidopsis thaliana. Particulars: 7 days.

The structures appear in SMILES notation.

Regarding `COC(=O)CCNC(=O)C(C)Sc1cc(-n2c(=O)cc(C(F)(F)F)n(C)c2=O)c(F)cc1Cl` (stereo not shown) [Tiafenacil], the growth result in assay [1] (400 μM tiafenacil) is “hardly grew”; in assay [1] (from 100 μM tiafenacil), “gradually started to exhibit growth inhibition”; in assay [2], “did not grow”. For the same compound, in assay [3], the plant damage entry is given as “completely died”. In addition, the IC50 (usually the point on the concentration scale where inhibition reaches its midpoint) in assay [4] was 56 nM. Moreover, the leaf damage result in assay [5] (T0, 15 μM painted on leaves) was “no damage”; in assay [6] it was “severe damage”. In addition, the damage level entry in assay [5] (T1, 25 μM tiafenacil spray, 5 days) was “no damage”. Besides, the seed germination result in assay [7] (25 μM glufosinate+30 nM tiafenacil+40 nM saflufenacil) and in assay [7] (25 μM glufosinate+70 nM tiafenacil) was “germinated” each time.
